The term IC50 denotes the concentration needed to halve the response being measured. A high value points to a need for much substance.

Structures are written as SMILES. Where only a bound is given, the exact number is not on record here.

For test [1], the system named is liver cancer cell line (HepG2). Put plainly: SRB cytotoxicity assay, liver cancer cell line. Format: cell-based. To be noted: Homo sapiens, 48 h incubation, triplicate, ±SD. As for the experimental part:
(§1) The cytotoxic activity of the isolated compounds was measured in vitro against a human liver cancer cell line (HEPG2), a human breast cancer cell line (MCF-7) and a human melanocyte (normal cell line) (HFB-4) in comparison to Doxorubicin, using sulforhodamine B (SRB) assay. Human tumor cell lines (MCF-7, HepG2) used in this study were obtained from the American Type Culture collection (ATCC, Manassas, VA, USA). The tumor cell lines were maintained at the National Cancer Institute, Cairo, Egypt, by serial sub culturing. Cells were seeded in 96-well microliter plates at initial concentration of (3 × 10^3 cell/well) in a fresh medium and left for 24 h to attach to the plates before treatment of the tested compounds. Tested compounds were dissolved in DMSO and diluted with saline to the appropriate volume. After 24 h, cells were incubated with the appropriate concentration ranges of drugs (0, 12.5, 25, 50, 100 µg/mL), the wells were diluted to 150 µL with fresh medium and incubation was continued for 48 h at 37 °C. Control cells were treated with vehicle alone. Three wells were used for each drug concentration. After 48 h incubation, the cells were fixed with 50 µL of cold 10% trichloroacetic acid for 1 h at 4 °C, washed 5 times with distilled water using (Automatic Washer Tecan, Heidelberg, Germany) and then stained for 30 min at room temperature with 50 µL 0.4% SRB dissolved in 1% acetic acid. The wells were then washed 4 times with 1% acetic acid. The plates were air dried and the dye was solubilized with 100 µL/well 10 mM tris base (pH = 10.5). The Optical density (O.D.) of each well was measured spectrophotometrically at 570 nm with an ELISA microplate reader (sunrise Tecan reader, Germany). The percentage of cell survival was calculated as follows:(1) Surviving fraction=O.D.(treated cells)/O.D.(control cells)
(§2) The relation between surviving fraction and compound concentration was plotted to get the survival curve for tumor cell line after the specified time.

The test system of test [2] is breast cancer cell line (MCF-7). Put plainly: SRB cytotoxicity assay, breast cancer cell line. Format: cell-based. The settings on record: Homo sapiens, MCF7, 48 h incubation, triplicate, ±SD. As for the experimental part: as §1, §2
Background: The SRB assay estimates cell density from bound dye.

Test [3] has as its system human melanocyte (normal cell line) (HFB-4). Put plainly: SRB cytotoxicity assay, normal cell line. Format: cell-based. The settings on record: 48 h incubation, triplicate, ±SD. As for the experimental part:
as §1, §2

The subject of test [4] is GSH and MDA levels in tumor tissues. As to the kind of experiment: ELISA of GSH and MDA levels in tumor homogenates. The settings on record: extract 200 mg/kg or jaceidin 50 mg/kg three times weekly. Format: in vivo, female Swiss albino mice. As to the method: (§3) Groups 1: mice treated with saline (5 mL/kg). All therapies continued for 21 days. Group 2: mice treated with C. montanus extract 200 mg/kg three times weekly. Group 3: mice treated with Jaceidin 50 mg/kg three times weekly.
(§4) One day after the end of the experiment (day 21), mice were subjected to light ether anesthesia and sacrificed by cervical dislocation; blood samples were collected by cardiac puncture. Blood samples were maintained at room temperature for 30 min and centrifuged at 12,000× g for 10 min. Then, sera were separated and stored at −20 °C until used. An ELISA kit (Sun Red Biotechnology Company, Shanghai, China) was employed for estimating serum VEGF level according to the manufacturer’s protocol. The color intensity was measured at 450 nm using an automated ELISA reader (Europe S.A., Belgium). Tumor was dissected into two halves; the first half was kept at −20 °C to be used in estimating MDA and GSH levels. The second half was cut into small pieces, then fixed in 10% phosphate-buffered formalin for histopathological examination.
Using a frozen sample, a part of tumor was weighted and homogenized as 10% (w/v) in phosphate-buffered saline using a Teflon homogenizer (Glass col homogenizer system, Vernon Hills, IL, USA). Homogenates were then centrifuged at 15,000× g for 10 min at 4 °C. After centrifugation, the supernatants were collected into 2 dry tubes and kept at −80 °C. The levels of MDA and GSH were determined in the tumor homogenates of […] using ELISA kits for MDA (Catalog No. MBS741034) and GSH (Catalogue Number: MBS026635) according to the manufacturer’s instructions.

For test [5], the system named is vascular endothelial growth factor B (VEGF-B). As to the kind of experiment: ELISA of serum VEGF level in EAC-bearing mice. Format: in vivo, female Swiss albino mice. To be noted: extract 200 mg/kg or jaceidin 50 mg/kg three times weekly. As to the method: as §3, §4
On the technique in general: ELISA stands for enzyme-linked immunosorbent assay.

Test [6] has as its system Ehrlich's ascites carcinoma (EAC) solid tumors. Put plainly: In vivo antitumor activity: tumor weight and histopathology of EAC solid tumors. The settings on record: extract 200 mg/kg or jaceidin 50 mg/kg three times weekly. Further details: species or system female Swiss albino mice.
Source text: Female Swiss albino mice with original body weight of 20–26 g and age of 8–10 weeks was used in the current experiment and fixed housing conditions were maintained at a normal dark/light cycle. Mice were housed in groups of six in polyethylene cages where food and water were provided ad libitum. The Research Ethics Committee at the Faculty of Pharmacy, Suez Canal University (license number 201809RA1), approved the study of protocol. Ehrlich’s Ascites Carcinoma is commonly employed as a solid form and easy to grow in suspension, when injected in the peritoneal cavity of female mice. Mice carrying the EAC cell line were obtained from the Department of Tumor Biology at the National Cancer Institute (Cairo, Egypt). The viability of EAC cells was ensured employing Trypan blue dye exclusion method. Then, EAC cells suspension was prepared in sterile saline solution to get a final working suspension; each 0.1 mL of which contained 2.5 million of EAC cells. At the beginning of the experiment, mice were shaved at their back, and inoculated with 0.1 mL of the EAC suspension.
Seven days after inoculation with the tumor cells in all female mice, mice were randomly divided into three groups, ten mice in each. The different treatments were started as follows;
as §3, §4
After fixation, samples were dehydrated in ascending grades of ethyl alcohol, cleared in xylol, embedded in paraffin wax, and then subjected to routine histopathological procedures. Sectioning was done at 5–7 µm thick followed by staining with Hematoxylin and Eosin (H&E). Digital imaging of representative areas was captured using image capture engine software (AMT V600.259) which attached to Olympus CX 41biocular microscope. Histopathological analysis of the digital images of solid tumor was performed by quantities the mitotic figures and tumor giant cells. For counting, ten sections from each experimental group were analyzed at scale bar 20 µm by using image J software that was developed by the National Institute of Health (Betheda, MD, USA). Histopathological examinations were evaluated blindly.

[7] abbreviates: EAC solid tumors in female mice, 21 days.

On to `COc1ccc(-c2oc3cc(O)cc(O)c3c(=O)c2OC)cc1OC` [Compound 3, 5,7-dihydroxy-3,3’,4’-trimethoxyflavone], for which the values for the IC50 in test [1], in test [2] and in test [3] were 30.5 ± 0.61 µM, 10.7 ± 0.4 µM and above 200 µM, respectively.
`COc1cccc2c1C(=O)c1c(O)c3c(c(O)c1C2=O)C[C@@](O)(C(=O)CO)C[C@@H]3O[C@H]1C[C@H](N)[C@H](O)[C@H](C)O1` [Doxorubicin, reference compound]: the concentration for half-maximal inhibition (IC50) stood at 4.58 ± 0.47 µM in test [1], 4 ± 0.25 µM in test [2] and 14.7 ± 0.5 µM in test [3].
For `CC(C)(O)[C@@]1(O)CC[C@]2(C)C(C1)[C@@](C)(O)CC[C@H]2O` (stereo partly drawn) [Compound 6, 1β,4β,7β, 11-tetrahydroxyeudesmane], the figures for the IC50 in test [1], in test [2] and in test [3] were 35.1 ± 0.6 µM, 33.2 ± 0.35 µM and above 200 µM, respectively.
The matching figures for `C=C(C)[C@]1(O)CC[C@]2(C)[C@H](O)CC[C@](C)(O)[C@@H]2C1` [Compound 5, Eudesm-11,13-ene-1β,4β,7α-triol]: 33.4 ± 0.49 µM, 38.5 ± 0.55 µM and above 200 µM.
For `C=C(C)[C@@H]1CC[C@]2(C)CCC[C@](C)(O)[C@H]2C1` [Compound 1, Intermedeol], the IC50 was 48.2 ± 0.3 µM in test [1], 45.6 ± 0.5 µM in test [2] and above 200 µM in test [3].
Turning to `COc1cc(-c2oc3cc(O)c(OC)c(O)c3c(=O)c2OC)ccc1O` [Compound 4, 5,7,4’-trihydroxy-3,6,3’-trimethoxyflavone], in test [1], the IC50 came to 9.7 ± 0.26 µM. Also, the “GSH levels in tumor tissues” value in test [4] (mean ± SD, tumor control 11.62 ± 1.96) was 29.25 ± 3.36. In addition, the “MDA levels in the tumor tissues” value in test [4] (mean ± SD, tumor control 15.18 ± 1.89) came to 4.25 ± 1.28. For the same compound, in test [4] (tumor tissues), the “GSH increase compared to tumor control” value was determined as 2.5 folds and the “MDA decrease compared to tumor control” value was determined as 72%. Further, the “serum VEGF decrease compared to tumor control” value in test [5] was found to be 61.7%. In addition, in test [5] (mean ± SD, tumor control 71.46 ± 1.88), the “serum VEGF levels” value was 27.3 ± 2.82. In test [2], this compound showed an IC50 of 9.3 ± 0.3 µM. Besides, the IC50 in test [3] was above 200 µM. For the same compound, in test [6] (setting [7]), the mean tumor weight was 0.032 g and the “tumor weight decrease compared to tumor control” value was 96.4%. In test [6] (H&E histopathology, mean ± SD, tumor control 3.46 ± 0.68), the “necrosis in the tumor tissues” value was determined as 1.63 ± 0.68. Moreover, the “number of tumor giant cells in the tumor tissues” value in test [6] (H&E histopathology, mean ± SD, tumor control 7.65 ± 2.48) is 1.30 ± 1.08. Besides, in test [6] (H&E histopathology, mean ± SD, tumor control 31.45 ± 5.46), the “number of mitotic figures in the tumor tissues” value is 5.20 ± 2.35. In addition, in test [6] (H&E histopathology), the “mitotic figure decrease compared to tumor control” value turned out to be 83.47%, the “necrosis decrease compared to tumor control” value amounted to 53.01% and the “tumor giant cell decrease compared to tumor control” value was found to be 83%.
As for `C=C1CCC[C@]2(C)CCC(C(C)(C)O)C[C@@]12OO` (stereo partly drawn) [Compound 2, 5α-hydroperoxy-β-eudesmol], the 50% inhibitory concentration (IC50) in test [1] is 39.7 ± 0.65 µM; in test [2], 41.5 ± 0.55 µM; in test [3] it was above 200 µM.

The record behind these values is article PMC7464537, “Jaceidin Flavonoid Isolated from Chiliadenus montanus Attenuates Tumor Progression in Mice via VEGF Inhibition: In Vivo and In Silico Studies” (Plants, 2020).
